Source: US4370327A, “Cephalosporins and pharmaceutical compositions” (Boehringer Ingelheim GmbH, priority 1980, dated 1983)
≈ marks a conversion by molar mass, not a printed value.

How the values were obtained:
[1] = tested on: E. coli ATCC 11775; assay: in vivo test against experimental intraperitoneal infection in mice; design: species or system E. coli in female mice of the NMRI strain; details: Escherichia coli, ATCC11775, sc, 168 h; subcutaneous, one treatment 1 hour after i.p. infection, observation 7 days; read-out: ED50 (dose at which 50% of the animals survived)
Protocol: A number of the compounds according to the invention were tested in vivo against experimental infections in mice. E. coli ATCC 11775 was used as the pathogenic bacteria. An intraperitoneal infection was produced with 0.2 ml of a bacterial suspension (with 5% mucin), which corresponds to about 1.4×10^6 E. coli bacteria per mouse. Female mice of the NMRI strain were divided up into groups of 10 animals. Two groups were untreated, and the other groups were treated with various doses of the cephalosporins according to the invention, administered subcutaneously, to determine the ED50 (does at which 50% of the animals survived). One treatment was administered 1 hour after the infection.
In both cases, the observation period was 7 days.

[2] = tested on: Klebsiella pneumoniea ATCC 10 031; assay: serial dilution test in the microtiter system, minimum inhibitory concentration; assay type: cell-based, Klebsiella pneumoniae; details: Klebs. pneum. ATCC 10031, 37° C., 18 to 20 hours
Protocol: (§1) The tests were performed using the serial dilution test in the microtiter system. The effect of the text compounds on bacteriostasis was examined at the following concentrations: 128, 64, 32, 16, 8, 4, 2, 1, 0.5, 0.25, 0.12, 0.06, 0.03, and 0.015 μg/ml. The nutrient medium consisted of 10 gm of peptone, 8 g of meat extract oxoid, 3 g of sodium chloride, and 2 g of sec. sodium phosphate diluted with distilled water to […] (pH 7.2-7.4). The age of the primary cultures was approximately 20 hours. The standardization of the bacteria suspension was effected using a photometer according to the method of Eppendorf (test tube .phi. 14 mm, filter 546 nm), using for comparison a barium sulfate suspension formed by the addition of 3.0 ml of 1% barium chloride solution to 97 ml of 1% sulfuric acid. After the standardization, the test pathogens were diluted further in a ratio of 1:1500 with a common salt solution.
(§2) Sixteen milligrams of a particular test compound were put into a 10 ml measuring flask, and the flask was subsequently filled to the mark with solvent. Further dilutions in the series were made with distilled water or the appropriate solvent.
(§3) The cavities of the microtiter plates were filled sequentially with 0.2 ml of nutrient medium, 0.01 ml of the appropriate test compound solution, and then 0.01 ml of the standardized bacteria suspension. The bacteria were incubated at 37° C. for from 18 to 20 hours. Control tests using only the solvent were carried out simultaneously.
(§4) The measurement was carried out macroscopically to determine the minimum inhibitory concentration (the lowest, still bacteriostatically effective concentration).
(§5) The following test organisms were used:
(§6) Staphylococcus aureus SG 511, Escherichia coli ATCC 11 775, Pseudomonas aeruginosa Hamburgensis and Pseudomonas aeruginosa Walter, Serratia marcescens ATCC 13 880, Klebsiella pneumoniea ATCC 10 031 and BC 6, Proteus mirabilis BC 17, Proteus rettgeri BC 7, Enterobacter cloaceae ATCC 13 047, and E. coli R+TEM (β-lactamase carrier), and Klebsiella pneumoniae 1082 E (β-lactamase carrier).
(§7) Representative compounds of the compounds of Formula I were tested. Those representative compounds comprised sodium salts of compounds of Formula I wherein R, D, and Y had the meanings set forth in the following table: […]

[3] = tested on: Klebsiella pneumoniea BC 6; assay: as above; assay type: cell-based, Klebsiella pneumoniae; details: BC6, Klebs. pneum. BC 6, 37° C., 18 to 20 hours
Protocol: as §1, §2, §3, §4, §5, §6, §7

[4] = tested on: Prot. rettg. BC 17; assay: as above; assay type: cell-based, Proteus rettgeri; details: Providencia rettgeri, 37° C., 18 to 20 hours
Protocol: as §1, §2, §3, §4, §5, §6, §7

[5] = tested on: Pseudomonas aeruginosa Walter; assay: as above; assay type: cell-based; details: Pseud. aeru Walter, 37° C., 18 to 20 hours
Protocol: as §1, §2, §3, §4, §5, §6, §7

[6] = tested on: Klebsiella pneumoniae 1082 E (β-lactamase carrier); assay: as above; assay type: cell-based; details: Klebs. pneum. 1082 E, 37° C., 18 to 20 hours
Protocol: as §1, §2, §3, §4, §5, §6, §7

[7] = tested on: Serratia marcescens ATCC 13 880; assay: as above; assay type: cell-based; details: Serr. marcesc. ATCC 13880, 37° C., 18 to 20 hours
Protocol: as §1, §2, §3, §4, §5, §6, §7

[8] = tested on: Pseudomonas aeruginosa Hamburgensis; assay: as above; assay type: cell-based; details: Pseud. aeru Hbg., 37° C., 18 to 20 hours
Protocol: as §1, §2, §3, §4, §5, §6, §7

[9] = tested on: Escherichia coli ATCC 11 775; assay: as above; assay type: cell-based; details: E. coli ATCC 11775, 37° C., 18 to 20 hours
Protocol: as §1, §2, §3, §4, §5, §6, §7

[10] = tested on: Proteus mirabilis BC 17; assay: as above; assay type: cell-based; details: BC17, Prot. mir. BC 17, 37° C., 18 to 20 hours
Protocol: as §1, §2, §3, §4, §5, §6, §7

[11] = tested on: Enterobacter cloaceae ATCC 13 047; assay: as above; assay type: cell-based; details: Enterob. cloacae ATCC 13047, 37° C., 18 to 20 hours
Protocol: as §1, §2, §3, §4, §5, §6, §7

[12] = tested on: Staphylococcus aureus SG 511; assay: as above; assay type: cell-based; details: SG511, St. aureus SG 511, 37° C., 18 to 20 hours
Protocol: as §1, §2, §3, §4, §5, §6, §7

| SMILES | ED50 [1] [mg/kg] | MIC [2] [µg/mL] | MIC [3] [µg/mL] | MIC [4] [µg/mL] | MIC [5] [µg/mL] | MIC [6] [µg/mL] | MIC [7] [µg/mL] | MIC [8] [µg/mL] | MIC [9] [µg/mL] | MIC [10] [µg/mL] | MIC [11] [µg/mL] | MIC [12] [µg/mL] |
| --- | --- | --- | --- | --- | --- | --- | --- | --- | --- | --- | --- | --- |
| CCN1CCN(C(=O)N[C@@H](C(=O)N[C@@H]2C(=O)N3C(C(=O)O)=C(CSc4nnnn4C)CS[C@H]23)c2ccc(O)cc2)C(=O)C1=O [Cefaperazone (T 1551), reference compound] | 3.1 | – | – | – | – | – | – | – | – | – | – | – |
| Cn1nnnc1SCC1=C(C(=O)O)N2C(=O)[C@@H](NC(=O)C(NC(=O)Nc3cnc(C4CC4)nc3O)c3csc(N)n3)[C@H]2SC1 (some centres unmarked) [A] | 0.5 | 0.03 (≈ 0.0454 µM) | 0.06 (≈ 0.0908 µM) | 0.12 (≈ 0.182 µM) | 32 (≈ 48.4 µM) | 32 (≈ 48.4 µM) | 0.25 (≈ 0.378 µM) | 32 (≈ 48.4 µM) | 0.03 (≈ 0.0454 µM) | 0.03 (≈ 0.0454 µM) | 0.5 (≈ 0.757 µM) | 1 (≈ 1.51 µM) |
| Cn1nnnc1SCC1=C(C(=O)O)N2C(=O)[C@@H](NC(=O)C(NC(=O)Nc3cnc(NCCCO)nc3O)c3csc(N)n3)[C@H]2SC1 (some centres unmarked) [C] | – | 0.25 (≈ 0.36 µM) | 0.12 (≈ 0.173 µM) | 0.25 (≈ 0.36 µM) | 32 (≈ 46.1 µM) | 32 (≈ 46.1 µM) | 0.25 (≈ 0.36 µM) | 32 (≈ 46.1 µM) | 0.06 (≈ 0.0865 µM) | 0.06 (≈ 0.0865 µM) | 0.5 (≈ 0.721 µM) | 2 (≈ 2.88 µM) |
| CCCNc1ncc(NC(=O)NC(C(=O)N[C@@H]2C(=O)N3C(C(=O)O)=C(CSc4nnnn4C)CS[C@H]23)c2csc(N)n2)c(O)n1 (some centres unmarked) [B] | – | 0.12 (≈ 0.177 µM) | 0.06 (≈ 0.0885 µM) | 0.12 (≈ 0.177 µM) | 32 (≈ 47.2 µM) | 16 (≈ 23.6 µM) | 0.25 (≈ 0.369 µM) | 32 (≈ 47.2 µM) | 0.06 (≈ 0.0885 µM) | 0.06 (≈ 0.0885 µM) | 0.25 (≈ 0.369 µM) | 1 (≈ 1.48 µM) |
| Cn1nnnc1SCC1=C(C(=O)O)N2C(=O)[C@@H](NC(=O)C(NC(=O)Nc3cnc(NC4CCC(O)CC4)nc3O)c3csc(N)n3)[C@H]2SC1 (some centres unmarked) [D] | < 0.3 | 0.06 (≈ 0.0818 µM) | 0.06 (≈ 0.0818 µM) | 0.12 (≈ 0.164 µM) | 16 (≈ 21.8 µM) | 32 (≈ 43.6 µM) | 0.25 (≈ 0.341 µM) | 16 (≈ 21.8 µM) | 0.06 (≈ 0.0818 µM) | 0.12 (≈ 0.164 µM) | 0.25 (≈ 0.341 µM) | 2 (≈ 2.73 µM) |
| Cn1nnnc1SCC1=C(C(=O)O)N2C(=O)[C@@H](NC(=O)C(NC(=O)Nc3cnc(Nc4ccc(S(N)(=O)=O)cc4)nc3O)c3csc(N)n3)[C@H]2SC1 (some centres unmarked) [F] | – | 0.12 (≈ 0.152 µM) | 0.12 (≈ 0.152 µM) | 0.25 (≈ 0.316 µM) | 16 (≈ 20.2 µM) | 64 (≈ 80.9 µM) | 0.5 (≈ 0.632 µM) | 16 (≈ 20.2 µM) | 0.06 (≈ 0.0759 µM) | 0.25 (≈ 0.316 µM) | 0.5 (≈ 0.632 µM) | 1 (≈ 1.26 µM) |
| CO/N=C(\C(=O)N[C@@H]1C(=O)N2C(C(=O)O)=C(COC(N)=O)CS[C@H]12)c1ccco1 [Cefuroxime, reference compound] | > 100 | 2 (≈ 4.71 µM) | 4 (≈ 9.43 µM) | 2 (≈ 4.71 µM) | > 128 | – | 8 (≈ 18.9 µM) | > 128 | 8 (≈ 18.9 µM) | 0.5 (≈ 1.18 µM) | 32 (≈ 75.4 µM) | 1 (≈ 2.36 µM) |
| Cc1nnc(SCC2=C(C(=O)O)N3C(=O)[C@@H](NC(=O)Cn4cnnn4)[C@H]3SC2)s1 [Cefazoline, reference compound] | – | 1 (≈ 2.2 µM) | 2 (≈ 4.4 µM) | > 128 | > 128 | > 128 | > 128 | > 128 | 4 (≈ 8.8 µM) | 4 (≈ 8.8 µM) | > 128 | 0.06 (≈ 0.132 µM) |
| CC(=O)OCC1=C(C(=O)O)N2C(=O)[C@@H](NC(=O)C(NC(=O)Nc3cnc(Nc4ccc(S(N)(=O)=O)cc4)nc3O)c3csc(N)n3)[C@H]2SC1 (some centres unmarked) [Compound E] | 0.1 to 0.3 | 0.06 (≈ 0.0817 µM) | 0.06 (≈ 0.0817 µM) | 0.12 (≈ 0.163 µM) | 8 (≈ 10.9 µM) | 32 (≈ 43.6 µM) | 0.12 (≈ 0.163 µM) | 16 (≈ 21.8 µM) | 0.03 (≈ 0.0408 µM) | 0.12 (≈ 0.163 µM) | 0.25 (≈ 0.34 µM) | 0.5 (≈ 0.68 µM) |
| Cn1nnnc1SCC1=C(C(=O)O)N2C(=O)[C@@H](NC(=O)C(NC(=O)Nc3cnc(NCc4ccc(O)cc4)nc3O)c3csc(N)n3)[C@H]2SC1 (some centres unmarked) [G] | < 0.2 | 0.06 (≈ 0.0809 µM) | 0.03 (≈ 0.0404 µM) | 0.06 (≈ 0.0809 µM) | 8 (≈ 10.8 µM) | 16 (≈ 21.6 µM) | 0.12 (≈ 0.162 µM) | 16 (≈ 21.6 µM) | 0.03 (≈ 0.0404 µM) | 0.03 (≈ 0.0404 µM) | 0.12 (≈ 0.162 µM) | 0.5 (≈ 0.674 µM) |
